Earlier results, collected in patent US11044905B2, “Tablet with an antimycotic agent, medical device and method for preserving harvested corneas” (ALCHILIFE S.R.L., priority 2018, dated 2021).

Conditions: organ culture preservation, 31° C.

## C[C@@H]1[C@H](O)[C@@H](C)/C=C/C=C/C=C/C=C/C=C/C=C/C=C/[C@H](O[C@@H]2O[C@H](C)[C@@H](O)[C@H](N)[C@@H]2O)C[C@@H]2O[C@](O)(C[C@@H](O)C[C@@H](O)[C@H](O)CC[C@@H](O)C[C@@H](O)CC(=O)O[C@H]1C)C[C@H](O)[C@H]2C(=O)O [Amphotericin B]
  period of effective protection under conditions of use: ≤ 14 days
